Measurements: patent publication US11530244B2, “Cyclic polypeptides for PCSK9 inhibition” (priority 2018, dated 2022)
Starred links: 1 amine or outer side, 2 acyl side, 3 side chain; linkers in the order of their positions; H or OH if unused. Positions of bridges follow the written chain, without caps; N, C: chain ends. Non-standard residues stand in square brackets, D forms with d. Residues, ends and D or L forms follow the SMILES beside them. Trp(βS-Me) = C[C@@H](c1c[nH]c2ccccc12)[C@H](N)C(=O)O; NHCH2C6H4(p)CH2CH2NH = c1cc(CN[*:1])ccc1CCN[*:2]; Phe(4-COOH) = N[C@@H](Cc1ccc(C(=O)O)cc1)C(=O)O; Trp(5-F) = N[C@@H](Cc1c[nH]c2ccc(F)cc12)C(=O)O; Phe(4-CH2NH2) = NCc1ccc(C[C@H](N)C(=O)O)cc1; Pro(cis-4-F) = O=C(O)[C@@H]1C[C@H](F)CN1; mXylylene = c1cc(C[*:1])cc(C[*:2])c1; AEF = NCCOc1ccc(C[C@H](N)C(=O)O)cc1; X48 = CC(N[*:1])c1ncc(C(=O)[*:2])s1; Adipoyl = O=C(CCCCC(=O)[*:2])[*:1]; X34 = O=C(CCC1CCN([*:1])CC1)[*:2]; X7 = O=C(Cc1ccc(CN[*:1])cc1)[*:2]; Aad = N[C@@H](CCCC(=O)O)C(=O)O; Suc = O=C(CCC(=O)[*:2])[*:1]; αMeP = C[C@@]1(C(=O)O)CCCN1; Dap = NC[C@H](N)C(=O)O; X2 = O=C(C[*:2])[*:1]; Mpa = O=C(O)CCS

Molecular target: PCSK9 (Homo sapiens (Human), UniProt Q8NBP7)
Assay: PCSK9 Alexa FRET Standard assay (displacement of AlexaFluor647 tagged cyclic peptide Reagent A)
Type: binding
Conditions: PCSK9 Alexa FRET Standard assay, 0.5 nM PCSK9, 20 nM AF cyclic peptide Reagent A; read-out: IC50
Procedure, shortened: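 TR-FRET displacement: 0.5 nM biotinylated PCSK9 with 1.25 nM Strep-Eu and 20 nM AlexaFluor-tagged cyclic peptide (final) in 50 mM HEPES pH 7.4, 0.15 M NaCl, 5 mM CaCl2, 0.01% BSA, 0.01% P20, ≥2 h at room temperature. IC50 from sigmoidal fit, converted to Ki via peptide KD; falling Eu counts flagged false positives.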

Sequence of PCSK9 (Q8NBP7 153-692): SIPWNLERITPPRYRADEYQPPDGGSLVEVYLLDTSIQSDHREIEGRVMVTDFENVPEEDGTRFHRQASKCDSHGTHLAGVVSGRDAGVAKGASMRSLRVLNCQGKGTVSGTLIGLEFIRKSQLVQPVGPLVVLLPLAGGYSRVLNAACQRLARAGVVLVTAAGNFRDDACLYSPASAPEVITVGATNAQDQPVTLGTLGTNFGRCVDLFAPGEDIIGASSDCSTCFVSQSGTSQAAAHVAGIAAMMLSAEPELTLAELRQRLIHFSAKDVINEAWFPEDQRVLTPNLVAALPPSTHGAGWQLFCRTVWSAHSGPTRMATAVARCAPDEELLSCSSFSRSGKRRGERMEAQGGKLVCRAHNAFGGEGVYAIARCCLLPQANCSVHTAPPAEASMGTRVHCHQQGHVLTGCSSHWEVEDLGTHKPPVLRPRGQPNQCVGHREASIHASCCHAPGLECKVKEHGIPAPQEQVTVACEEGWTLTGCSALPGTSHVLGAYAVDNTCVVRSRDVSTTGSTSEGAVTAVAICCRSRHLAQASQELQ

Compound	IC50 [µM]
COc1ccc(C[C@@H]2NC(=O)[C@H]([C@@H](C)O)NC(=O)[C@@H]3C[C@H](F)CN3C(=O)[C@H](Cc3c[nH]c4ccc(F)cc34)NC(=O)[C@H](Cc3c[nH]c4ccc(F)cc34)NC(=O)[C@@H](C)NC(=O)[C@H](CCCCN)NC(=O)[C@@H](NC(C)=O)CNC(=O)COc3ccc(cc3)C[C@@H](C(N)=O)NC(=O)[C@]3(C)CCCN3C2=O)cc1 [Compound 094] (Ac-[Dap]K[dA][Trp(5-F)][Trp(5-F)][Pro(cis-4-F)]TY(Me)[αMeP]Y-NH2; linker 1-10 via X2)	21 to 50
COc1ccc(C[C@@H]2NC(=O)[C@H](Cc3cnc[nH]3)NC(=O)[C@H](CC(=O)O)NC(=O)[C@H](Cc3c[nH]c4ccc(F)cc34)NC(=O)[C@H](Cc3c[nH]c4ccc(F)cc34)NC(=O)[C@@H](C)NC(=O)CCC3CCN(CC3)C(=O)c3ccc(cc3)C[C@@H](C(N)=O)NC(=O)[C@]3(C)CCCN3C2=O)cc1 [Compound 389] ([X34][dA][Trp(5-F)][Trp(5-F)]DHY(Me)[αMeP][Phe(4-COOH)]-NH2; lactam N-9)	21 to 50
C[C@@H](c1c[nH]c2ccccc12)[C@@H]1NC(=O)CNC(=O)[C@H](CCCCN)NC(=O)CCSCc2cccc(c2)CSC[C@@H](C(N)=O)NC(=O)[C@]2(C)CCCN2C(=O)[C@H](Cc2ccc(O)cc2)NC(=O)[C@H](Cc2cnc[nH]2)NC(=O)[C@H](CC(=O)O)NC(=O)[C@H](Cc2c[nH]c3ccc(F)cc23)NC1=O [Compound 430] ([Mpa]KG[Trp(βS-Me)][Trp(5-F)]DHY[αMeP]C-NH2; linker 1-10 via mXylylene)	1 to 12.1
CC1NC(=O)CCSCc2cccc(c2)CSC[C@@H](C(N)=O)NC(=O)[C@]2(C)CCCN2C(=O)[C@H](Cc2ccc(O)cc2)NC(=O)[C@H](Cc2cnc[nH]2)NC(=O)[C@H](CC(=O)O)NC(=O)[C@H](Cc2c[nH]c3ccc(F)cc23)NC(=O)[C@H](Cc2c[nH]c3ccc(F)cc23)NC(=O)C2=CN=C1S2 (stereo partly shown) [Compound 434] ([Mpa][X48][Trp(5-F)][Trp(5-F)]DHY[αMeP]C-NH2; linker 1-9 via mXylylene)	21 to 50
COc1ccc(C[C@@H]2NC(=O)[C@@H]([C@H](C)O)NC(=O)[C@@H]3C[C@H](F)CN3C(=O)[C@H](Cc3c[nH]c4ccc(F)cc34)NC(=O)[C@H](Cc3c[nH]c4ccc(F)cc34)NC(=O)[C@@H](C)NC(=O)Cc3ccc(cc3)CNC(=O)c3ccc(cc3)C[C@@H](C(N)=O)NC(=O)[C@]3(C)CCCN3C2=O)cc1 [Compound 080] ([X7][dA][Trp(5-F)][Trp(5-F)][Pro(cis-4-F)][dT]Y(Me)[αMeP][Phe(4-COOH)]-NH2; lactam N-9)	1 to 12.1
CC(C)C[C@H]1C(=O)N[C@@H](Cc2ccc(O)cc2)C(=O)N2CCC[C@@]2(C)C(=O)N[C@H](C(N)=O)CSCc2cccc(c2)CSCCC(=O)N[C@@H](CCCCN)C(=O)NCC(=O)N[C@@H](Cc2c[nH]c3ccc(F)cc23)C(=O)N[C@@H](Cc2c[nH]c3ccc(F)cc23)C(=O)N[C@H]2CCN1C2=O [Compound 472]	0.00011 to 0.1
COc1ccc(C[C@@H]2NC(=O)[C@H]([C@@H](C)O)NC(=O)[C@@H]3C[C@H](F)CN3C(=O)[C@H](Cc3c[nH]c4ccc(F)cc34)NC(=O)[C@H](Cc3c[nH]c4ccc(F)cc34)NC(=O)[C@@H](C)NC(=O)[C@H](CCCCN)NC(=O)CCC(=O)NCCOc3ccc(cc3)C[C@@H](C(N)=O)NC(=O)[C@]3(C)CCCN3C2=O)cc1 [Compound 098] (K[dA][Trp(5-F)][Trp(5-F)][Pro(cis-4-F)]TY(Me)[αMeP][AEF]-NH2; linker N-9 via Suc)	21 to 50
COc1ccc(C[C@@H]2NC(=O)[C@H]([C@@H](C)O)NC(=O)[C@@H]3C[C@H](F)CN3C(=O)[C@H](Cc3c[nH]c4ccc(F)cc34)NC(=O)[C@H](Cc3c[nH]c4ccc(F)cc34)NC(=O)[C@@H](C)NC(=O)[C@H](CCCCN)NC(=O)[C@@H](NC(C)=O)CCCC(=O)NCc3ccc(cc3)CCNC(=O)[C@]3(C)CCCN3C2=O)cc1 [Compound 096] (Ac-[Aad]K[dA][Trp(5-F)][Trp(5-F)][Pro(cis-4-F)]TY(Me)[αMeP]; linker 1-C via NHCH2C6H4(p)CH2CH2NH)	0.1 to 1
NC(=O)[C@@H]1Cc2ccc(cc2)CNC(=O)CCCCC(=O)NCC(=O)N[C@@H](Cc2c[nH]c3ccc(F)cc23)C(=O)N[C@@H](Cc2c[nH]c3ccc(F)cc23)C(=O)N[C@@H](CC(=O)O)C(=O)N[C@@H](Cc2cnc[nH]2)C(=O)N[C@@H](Cc2ccc(O)cc2)C(=O)N1 [Compound 438] (G[Trp(5-F)][Trp(5-F)]DHY[Phe(4-CH2NH2)]-NH2; linker N-7 via Adipoyl)	21 to 50
COc1ccc(C[C@@H]2NC(=O)[C@H](C(C)C)NC(=O)[C@@H]3CCCN3C(=O)[C@H](Cc3c[nH]c4ccc(F)cc34)NC(=O)[C@H](Cc3c[nH]c4ccc(F)cc34)NC(=O)[C@@H](C)NC(=O)[C@H](CCCCN)NC(=O)CCSCc3cccc(c3)CSC[C@@H](C(N)=O)NC(=O)[C@]3(C)CCCN3C2=O)cc1 [Compound 009] ([Mpa]K[dA][Trp(5-F)][Trp(5-F)]PVY(Me)[αMeP]C-NH2; linker 1-10 via mXylylene)	21 to 50
